Assay results published in the NIST ThermoML archive (doi:10.1016/j.fluid.2017.03.021).

Columns and labels:
[1] = 101.33 kPa, Liquid; for speed of sound: Sing-around technique in a fixed-path interferometer; for mass density: Vibrating tube method
[2] = molar heat capacity at constant pressure; conditions: 101.33 kPa, Liquid, DSC

CCCCn1cc[n+](CCC(C)C)c1.O=S(=O)([N-]S(=O)(=O)C(F)(F)F)C(F)(F)F
Conditions | mass density, [1] [kg/m3] | molar heat capacity at constant pressure, [2] [J/K/mol] | speed of sound, [1] [m/s]
287.15 K | 1328.1 | – | 1243.8
289.15 K | 1326.3 | – | 1238.9
291.15 K | 1324.4 | – | 1234.1
293.15 K | 1322.6 | 681.82 | 1229.3
294.15 K | – | 682.92 | –
295.15 K | 1320.8 | 683.63 | 1224.5
296.15 K | – | 684.34 | –
297.15 K | 1319.1 | 685.11 | 1219.8
298.15 K | – | 685.77 | –
299.15 K | 1317.3 | 686.48 | 1215.1
300.15 K | – | 687.15 | –
301.15 K | 1315.5 | 687.82 | 1210.4
302.15 K | – | 688.48 | –
303.15 K | 1313.7 | 689.15 | 1205.8
304.15 K | – | 689.91 | –
305.15 K | 1311.9 | 690.67 | 1201.2
306.15 K | – | 691.33 | –
307.15 K | 1310.2 | 692.19 | 1196.6
308.15 K | – | 692.95 | –
309.15 K | 1308.4 | 693.62 | 1192
310.15 K | – | 694.42 | –
311.15 K | 1306.6 | 695.14 | 1187.5
312.15 K | – | 695.9 | –
313.15 K | 1304.9 | 696.66 | 1183
314.15 K | – | 697.47 | –
315.15 K | 1303.1 | 698.23 | 1178.4
316.15 K | – | 698.94 | –
317.15 K | 1301.3 | 699.65 | 1173.9
318.15 K | – | 700.56 | –
319.15 K | 1299.6 | 701.27 | 1169.5
320.15 K | – | 702.08 | –
321.15 K | 1297.8 | 702.84 | 1165
322.15 K | – | 703.7 | –
323.15 K | 1296.1 | 704.55 | 1160.6
324.15 K | – | 705.36 | –
325.15 K | 1294.3 | 706.26 | 1156.2
326.15 K | – | 707.07 | –
327.15 K | 1292.6 | 707.93 | 1151.8
328.15 K | – | 708.78 | –
329.15 K | 1290.8 | 709.59 | 1147.4
330.15 K | – | 710.4 | –
331.15 K | 1289.1 | 711.16 | 1143
332.15 K | – | 711.97 | –
333.15 K | 1287.4 | 712.68 | 1138.7
334.15 K | – | 713.49 | –
335.15 K | 1285.6 | 714.25 | 1134.3
336.15 K | – | 714.92 | –
337.15 K | 1283.9 | 715.82 | 1130
338.15 K | – | 716.58 | –
339.15 K | 1282.2 | 717.34 | 1125.7
340.15 K | – | 718.15 | –
341.15 K | 1280.4 | 718.86 | 1121.5
342.15 K | – | 719.53 | –
343.15 K | 1278.7 | 720.2 | 1117.3
344.15 K | – | 720.81 | –
345.15 K | – | 721.43 | –
346.15 K | – | 722.24 | –
347.15 K | – | 723.05 | –
348.15 K | – | 724.28 | –
